IC50 data for 14 molecules are collected here from patent US11964988B2, “Fused heterocyclic compounds as RET kinase inhibitors” (ARRAY BIOPHARMA INC., priority 2018, dated 2024).

In assay [1] the target is T1, HEK-293 cells expressing a G810R mutant RET Kif5b-RET fusion protein (Homo sapiens, UniProt P07949, G810R).
T1 construct: KIF5B (N-terminal portion incl. coiled-coil); expressed in transfected cells; host or cells: HEK-293; the other entry of the earlier key: KIF5B (P33176, Kinesin-1 heavy chain)
T1 sequence (P07949 713-1063 G810R limits assumed): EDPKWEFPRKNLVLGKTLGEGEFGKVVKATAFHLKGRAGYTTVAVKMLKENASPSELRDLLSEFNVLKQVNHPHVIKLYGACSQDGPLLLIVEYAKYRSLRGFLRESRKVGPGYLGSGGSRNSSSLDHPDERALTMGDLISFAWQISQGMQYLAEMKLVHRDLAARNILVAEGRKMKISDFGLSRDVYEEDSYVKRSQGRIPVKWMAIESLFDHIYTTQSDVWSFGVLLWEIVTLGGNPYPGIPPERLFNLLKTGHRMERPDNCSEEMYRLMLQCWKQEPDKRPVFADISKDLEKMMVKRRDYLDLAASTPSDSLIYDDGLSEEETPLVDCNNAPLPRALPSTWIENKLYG
The assay is described as follows: RET G810R Mutant Cell Assay (phospho-RET Tyr1062). The note with it: HEK-293 Kif5b-RET G810R, 1 hour incubation, phospho-RET normalized to GAPDH. The format is cell-based. The method, boiled down: (§1)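 Engineered HEK-293 cells were treated 1 h with compound in DMEM, 0.5% DMSO final, then fixed, permeabilized and immunostained for phospho-RET Tyr1062 and GAPDH. In-cell fluorescence pRET signal was normalized to GAPDH; IC50 taken from a 4-parameter logistic fit of percent of control at 50 POC.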

A further assay deals with G810R mutant RET kinase (Homo sapiens, UniProt P07949, G810R). The assay is described as follows: biochemical.
The target in a further assay is G810S mutant RET kinase (Homo sapiens, UniProt P07949, G810S). The assay is described as follows: biochemical.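 Further: HTRF KinEASE-TK kinase assay with recombinant enzyme, 1 h at 22 °C, dual-wavelength ratiometric read-out, percent of control (DMSO-only = 100, pre-quenched reaction = 0).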
The target of assay [2] is T2, HEK-293 cells expressing a G810S mutant RET Kif5b-RET fusion protein (Homo sapiens, UniProt P07949, G810S).
T2 construct: KIF5B (N-terminal portion incl. coiled-coil); expressed in transfected cells; host or cells: HEK-293
T2 sequence (P07949 713-1063 G810S limits assumed): T1 sequence (P07949 713-1063 G810R limits assumed) with R98S
The assay is described as follows: RET G810S Mutant Cell Assay (phospho-RET Tyr1062). The format is cell-based. Conditions: HEK-293 Kif5b-RET G810S, 1 hour incubation, phospho-RET normalized to GAPDH. The method, boiled down: as §1

The next assay deals with RET kinase V804M (Homo sapiens, UniProt P07949, V804M). The assay is described as follows: RET Enzyme Assay (CisBio HTRF KinEASE-TK), V804M. Conditions: read-out: RET V804M Enz FRET IC50. The format is biochemical. (TR-FRET usually uses a lanthanide donor and a delayed reading to cut background.)
In assay [3] the target is T3, HEK-293 cells expressing a Kif5b-RET fusion protein (Homo sapiens, UniProt P07949).
T3 construct: KIF5B (N-terminal portion incl. coiled-coil); expressed in transfected cells; host or cells: HEK-293; the other entry of the earlier key: KIF5B (P33176, Kinesin-1 heavy chain)
T3 sequence (P07949 713-1063 limits assumed): T1 sequence (P07949 713-1063 G810R limits assumed) with R98G
The assay is described as follows: RET Cell Assay (phospho-RET Tyr1062). Format: cell-based. The note with it: HEK-293 Kif5b-RET, 1 hour incubation, phospho-RET normalized to GAPDH; read-out: KIF5B-RET pTYR1062 Cell IC50. The method, boiled down: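 Kif5b-RET HEK-293 cells treated 1 hour with compound in DMEM (0.5% DMSO final), then fixed and immunostained for phospho-RET Tyr1062, normalized to GAPDH by infrared fluorescence. IC50 where the 4-parameter logistic fit of POC crosses 50.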

The target in another assay is RET kinase Wild Type (Homo sapiens, UniProt P07949). Put plainly: biochemical.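 Further: HTRF kinase activity assay on RET enzyme, 1 h reaction at 22 °C, dual-wavelength readout as percent of control, DMSO-only wells as 100%, pre-quenched reactions as 0%.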

Changes are numbered by the printed parent chain.

Usually IC50 stands for the concentration that inhibits the measured activity by half.

Sequence of G810S mutant RET kinase (P07949 29-1114 G810S): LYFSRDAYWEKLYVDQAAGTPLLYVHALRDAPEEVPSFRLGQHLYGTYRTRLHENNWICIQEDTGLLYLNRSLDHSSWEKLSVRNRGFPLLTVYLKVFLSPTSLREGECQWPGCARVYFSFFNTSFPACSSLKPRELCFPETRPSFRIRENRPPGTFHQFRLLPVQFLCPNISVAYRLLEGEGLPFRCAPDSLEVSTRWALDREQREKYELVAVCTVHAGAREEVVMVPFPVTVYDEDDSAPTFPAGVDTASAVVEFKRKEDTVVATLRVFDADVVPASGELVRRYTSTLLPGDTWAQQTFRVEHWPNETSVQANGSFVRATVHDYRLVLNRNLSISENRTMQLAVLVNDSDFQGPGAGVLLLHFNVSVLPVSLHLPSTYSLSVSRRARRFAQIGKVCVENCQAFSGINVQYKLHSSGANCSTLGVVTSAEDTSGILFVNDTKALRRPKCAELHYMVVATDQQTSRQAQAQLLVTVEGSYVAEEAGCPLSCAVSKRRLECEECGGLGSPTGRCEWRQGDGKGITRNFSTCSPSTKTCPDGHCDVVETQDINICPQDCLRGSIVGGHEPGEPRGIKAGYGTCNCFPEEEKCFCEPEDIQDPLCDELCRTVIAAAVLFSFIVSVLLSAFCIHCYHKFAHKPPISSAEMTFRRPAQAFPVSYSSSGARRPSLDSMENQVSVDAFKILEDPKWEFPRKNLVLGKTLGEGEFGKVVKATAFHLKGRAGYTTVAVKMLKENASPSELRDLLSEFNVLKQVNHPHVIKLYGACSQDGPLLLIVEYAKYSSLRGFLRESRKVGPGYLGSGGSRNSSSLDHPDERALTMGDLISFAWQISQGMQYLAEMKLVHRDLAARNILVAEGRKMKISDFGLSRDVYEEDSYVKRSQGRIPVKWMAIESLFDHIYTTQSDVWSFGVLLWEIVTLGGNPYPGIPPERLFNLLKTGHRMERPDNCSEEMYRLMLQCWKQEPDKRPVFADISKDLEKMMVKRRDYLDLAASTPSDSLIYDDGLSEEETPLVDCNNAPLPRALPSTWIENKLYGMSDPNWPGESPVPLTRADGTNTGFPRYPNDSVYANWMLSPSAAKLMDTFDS
Sequence of RET kinase V804M (P07949 29-1114 V804M): as the sequence (P07949 29-1114 G810S) above, with V776M, S782G counted along it
Sequence of G810R mutant RET kinase (P07949 29-1114 G810R): as the sequence (P07949 29-1114 G810S) above, with S782R counted along it
Sequence of RET kinase Wild Type (P07949 29-1114): as the sequence (P07949 29-1114 G810S) above, with S782G counted along it

With `Nc1ncnc2c1c1c(n2C2CCC(O)C2)CCC(O)c2c-1noc2C1CC1` (centres unmarked) [Example 129, 11-Amino-3-cyclopropyl-7-(3-hydroxycyclopentyl)-4,5,6,7-tetrahydroisoxazolo[4″,3″:6′,7′]cyclohepta[1′,2′:4,5]pyrrolo[2,3-d]pyrimidin-4-ol], the IC50 worked out at 46 nM in assay [1]; 23 nM against G810R mutant RET kinase; 19 nM on G810S mutant RET kinase; 65 nM in assay [2]; 21 nM on RET kinase V804M; 18 nM in assay [3]. The same molecule gave an IC50 on RET kinase Wild Type of 8 nM.
For the molecule `CC(n1c2c(c3c(N)ncnc31)-c1noc(C3CC3)c1C(O)CC2)C(F)(F)F` (centres unmarked) [Example 131, 11-Amino-3-cyclopropyl-7-(1,1,1-trifluoropropan-2-yl)-4,5,6,7-tetrahydroisoxazolo[4″,3″:6′,7′]cyclohepta[1′,2′:4,5]pyrrolo[2,3-d]pyrimidin-4-ol], the concentration for half-maximal inhibition (IC50) was found to be 30 nM in assay [1]; 97 nM on G810R mutant RET kinase; 18 nM against G810S mutant RET kinase; 60 nM in assay [2]; 41 nM at RET kinase V804M; 14 nM in assay [3]. In addition, half-maximal inhibition against RET kinase Wild Type (IC50) required 14 nM.
Take `CC(C)n1c2c(c3c(N)ncnc31)-c1noc(C3CC3)c1[C@H](O)[C@@H](C)C2` (single isomer, unassigned) [Example 65]: the concentration for half-maximal inhibition (IC50) in assay [1] was 621 nM; on G810R mutant RET kinase it was 64 nM; against G810S mutant RET kinase, 133 nM; in assay [2], 290 nM; at RET kinase V804M, 163 nM; in assay [3] it was 45 nM. Moreover, the midpoint of inhibition against RET kinase Wild Type, the IC50, lay at 43 nM.
On to `Nc1ncnc2c1c1c(n2C2CCCC2)CCC(O)c2c-1noc2C1CC1` (centres unmarked) [Example 120, 11-Amino-7-cyclopentyl-3-cyclopropyl-4,5,6,7-tetrahydroisoxazolo[4″,3″:6′,7′]cyclohepta[1′,2′:4,5]pyrrolo[2,3-d]pyrimidin-4-ol], for which the half-inhibitory concentration (IC50) in assay [1] stood at 35 nM; on G810R mutant RET kinase, 74 nM; against G810S mutant RET kinase, 24 nM; in assay [2], 33 nM; on RET kinase V804M, 20 nM; in assay [3], 15 nM. Besides, on RET kinase Wild Type, it took 10 nM to reach half-maximal inhibition (IC50).
With `Nc1ncnc2c1c1c(n2C2CCCC2)CCC(O)c2c-1noc2C1CC1` (single isomer, unassigned) [Example 124], the IC50 in assay [1] amounted to 44 nM; against G810R mutant RET kinase, 89 nM; against G810S mutant RET kinase, 49 nM; in assay [2], 33 nM; at RET kinase V804M it was 80 nM; in assay [3], 19 nM. Also, the half-inhibitory concentration (IC50) on RET kinase Wild Type turned out to be 24 nM.
For `CC1Cc2c(c3c(N)ncnc3n2C(C)C)-c2noc(C3CC3)c2C1=O` (centres unmarked) [Example 60, 11-amino-3-cyclopropyl-7-isopropyl-5-methyl-6,7-dihydroisoxazolo[4″,3″:6′,7′]cyclohepta[1′,2′:4,5]pyrrolo[2,3-d]pyrimidin-4(5H)-one], the IC50 in assay [1] worked out at 157 nM; on G810R mutant RET kinase, 45 nM; at G810S mutant RET kinase it was 40 nM; in assay [2], 101 nM; at RET kinase V804M, 98 nM; in assay [3], 29 nM. Also, on RET kinase Wild Type, the midpoint of inhibition, the IC50, lay at 21 nM.
For `CC(C)n1c2c(c3c(N)ncnc31)-c1cc3ccc(C(=O)Nc4ccn(CCN5CCOCC5)n4)cc3n1CCC2` [Example 88, 1-amino-5-isopropyl-N-(1-(2-morpholinoethyl)-1H-pyrazol-3-yl)-5,6,7,8-tetrahydropyrimido[5″,4″:4′,5′]pyrrolo[3′,2′: 3,4]azepino[1,2-a]indole-11-carboxamide], the half-maximal inhibitory concentration (IC50) was determined as 53 nM in assay [1]; 288 nM at G810R mutant RET kinase; 297 nM on G810S mutant RET kinase; 44 nM in assay [2]; 6260 nM at RET kinase V804M; 50 nM in assay [3]. Besides, the half-maximal inhibitory concentration (IC50) against RET kinase Wild Type worked out at 62 nM.
Turning to `Nc1ncnc2c1c1c(n2C2CCCC2)CC[C@@H](O)c2c-1noc2C1CC1` (single isomer, unassigned) [Example 125], the half-maximal inhibitory concentration (IC50) worked out at 16 nM in assay [1]; 41 nM against G810R mutant RET kinase; 19 nM at G810S mutant RET kinase; 16 nM in assay [2]; 19 nM on RET kinase V804M; 7 nM in assay [3]. The molecule also showed an IC50 against RET kinase Wild Type of 11 nM.
Consider `CC(C)n1c2c(c3c(N)ncnc31)-c1noc(C3CC3)c1[C@H](O)CC2` (single isomer, unassigned) [Example 55], for which the IC50 amounted to 46 nM in assay [1]; 31 nM on G810R mutant RET kinase; 29 nM at G810S mutant RET kinase; 40 nM in assay [2]; 21 nM on RET kinase V804M; 10 nM in assay [3]. This molecule also had a half-inhibitory concentration (IC50) against RET kinase Wild Type of 8 nM.
Consider `CC1(n2c3c(c4c(N)ncnc42)-c2noc(C4CC4)c2[C@H](O)CC3)CC1` [Example 150, (R)-11-Amino-3-cyclopropyl-7-(1-methylcyclopropyl)-4,5,6,7-tetrahydroisoxazolo[4″,3″:6′,7′]cyclohepta[1′,2′:4,5]pyrrolo[2,3-d]pyrimidin-4-ol], for which the 50% inhibitory concentration (IC50) in assay [1] was found to be 40 nM; against G810R mutant RET kinase, 84 nM; against G810S mutant RET kinase, 46 nM; in assay [2] it was 18 nM; at RET kinase V804M, 15 nM; in assay [3], 4 nM. In addition, the IC50 on RET kinase Wild Type came to 12 nM.
In the case of `CO[C@@H]1CCc2c(c3c(N)ncnc3n2C(C)C)-c2noc(C3CC3)c21` (single isomer, unassigned) [Example 58], the IC50 in assay [1] came to 186 nM; against G810R mutant RET kinase, 64 nM; on G810S mutant RET kinase, 159 nM; in assay [2], 181 nM; at RET kinase V804M it was 66 nM; in assay [3] it was 49 nM. For the same molecule, the midpoint of inhibition on RET kinase Wild Type, the IC50, lay at 23 nM.
For `C[C@H](n1c2c(c3c(N)ncnc31)-c1noc(C3CC3)c1[C@@H](O)CC2)C(F)(F)F` (single isomer, unassigned) [Example 146, 2,2,2-trifluoroacetate], the IC50 in assay [1] was found to be 98 nM; against G810R mutant RET kinase, 43 nM; against G810S mutant RET kinase, 116 nM; in assay [2], 68 nM; on RET kinase V804M, 87 nM; in assay [3], 63 nM. The molecule further gave a 50% inhibitory concentration (IC50) against RET kinase Wild Type of 26 nM.
For the molecule `CC(C)n1c2c(c3c(N)ncnc31)-c1cc3ccc(C(=O)NC4CC4)cc3n1CCC2` [Example 87, 1-Amino-N-cyclopropyl-5-isopropyl-5,6,7,8-tetrahydropyrimido[5″,4″:4′,5′]pyrrolo[3′,2′:3,4]azepino[1,2-a]indole-11-carboxamide], the half-maximal inhibitory concentration (IC50) amounted to 89 nM in assay [1]; 202 nM against G810R mutant RET kinase; 204 nM on G810S mutant RET kinase; 71 nM in assay [2]; 5780 nM at RET kinase V804M; 32 nM in assay [3]. The same molecule displayed an IC50 on RET kinase Wild Type of 47 nM.
As for `CC1Cc2c(c3c(N)ncnc3n2C(C)C)-c2noc(C3CC3)c2C1O` (centres unmarked) [Example 61, 11-amino-3-cyclopropyl-7-isopropyl-5-methyl-4,5,6,7-tetrahydroisoxazolo[4″,3″:6′,7′]cyclohepta[1′,2′:4,5]pyrrolo[2,3-d]pyrimidin-4-ol], the IC50 in assay [1] was found to be 281 nM; against G810R mutant RET kinase, 89 nM; at G810S mutant RET kinase, 58 nM; in assay [2] it was 101 nM; on RET kinase V804M, 136 nM; in assay [3], 33 nM. The molecule further showed an IC50 at RET kinase Wild Type of 31 nM.
